How the values were obtained:
[1] = system: white blood cells contained in a whole blood sample; assay: MPO-releasing effects of various surfactants on whole blood, ELISA (Examples 3 to 5); type: cell-based, human; settings: 60 minutes on ice
Experimental: 10 ml of healthy human whole blood was collected using a 28 G winged intravenous injection needle (manufactured and sold by Terumo Corporation, Japan), and immediately mixed with 10 mg of EDTA-2K (manufactured and sold by Dojin Laboratories, Japan), and the resultant EDTA-containing whole blood sample was subjected to the below-described various measurements within 1 hour from the blood collection.
500 μl of the blood was put in a 2-ml Eppendorf tube, and 500 μl of a 1% (w/v) aqueous surfactant solution was added to the tube, and the resultant mixture was stirred for 2 seconds by a Vortex mixer. Subsequently, the mixture was allowed to stand for 60 minutes on ice to thereby lyze the white blood cells. After the lysis of the white blood cells, 100 μl of the mixture was taken out and added to 900 μl of a PBS solution containing dissolved therein 1% BSA (trade name: “Sigma fraction V”, manufactured and sold under the brand of SIGMA™, U.S.A.). The resultant mixture was stirred by a Vortex mixer, and then 10 μl of the mixture was taken out and diluted 2,000-fold with 1% BSA/PBS solution. The resultant diluted mixture was subjected to a measurement by ELISA.
The outline of the ELISA is as follows. A 5 μg/ml PBS solution of an anti-MPO antibody was put into the wells of a Nunc Immuno Plate (manufactured and sold by Nalge Nunc International, Denmark) in an amount of 100 μl per well. The solution in each well was sealed and subjected to a reaction for 18 hours at 4° C. thereby immobilizing the primary antibody. The wells were washed with a washing solution (0.05% Tween™ 20/PBS) and then subjected to blocking for 1 hour at room temperature by using 200 μl of a blocking solution (1% BSA/PBS), and then washed twice with the washing solution. […] The wells were washed 5 times with a washing solution, and 100 μl of a just-prepared TMB solution (manufactured and sold by Kirkegaad & Perry Laboratories, U.S.A.) was added thereto to effect a color reaction. 2 Minutes after the start of the color reaction, 100 μl of a 1 N sulfuric acid solution (manufactured and sold by Nacalai Tesque, Inc., Japan) was added to the wells to thereby terminate the reaction. Then, the absorbance at 450 nm was measured by means of a plate reader (manufactured and sold by Bio-Rad Laboratories, U.S.A.).
With respect to the measurement of the MPO concentration of the sample, MPO (manufactured and sold by Elastin Products Co., INC., U.S.A.) was added to the sample so that the final concentration of the added MPO became 5 ng/ml or 10 ng/ml, and the resultant mixture was measured with respect to the MPO concentration. From the obtained value of MPO concentration, a calibration curve for each sample was obtained. The obtained calibration curve was corrected, based on its relationship with a calibration curve obtained with respect to a standard MPO solution, and the corrected calibration curve of each sample was used to determine the MPO concentration of the whole blood. The measurement was conducted 3 times, and a mean value±standard deviation was obtained.

[2] = system: white blood cells in whole blood; settings: nonionic surfactants, dependence on HLB value
Experimental: Blood collection, treatment with a surfactant, and ELISA were performed in the same manner as in Example 3 in order to measure the MPO-releasing effects of the below-mentioned various surfactants.
These surfactants were individually dissolved in purified water (manufactured and sold by Kyoei Seiyaku Co., Japan) so as to obtain 10% or 2% (w/v) aqueous solutions. Before use in the testing, each of the aqueous solutions was further diluted to obtain a 1% (w/v) aqueous solution, and the 1% (w/v) aqueous solution was used in the testing within 15 hours from the preparation thereof. As a control, purified water (manufactured and sold by Kyoei Seiyaku Co., Japan) was used.

[3] = system: white blood cells contained in the whole blood; assay: Concentration of surfactant and release amount of MPO in whole blood, ELISA (Example 2); type: cell-based, human; settings: 60 minutes on ice, mean ± SD of 3
Experimental: 10 ml of healthy human whole blood was collected and immediately mixed with 10 mg of EDTA-2K (manufactured and sold by Dojin Laboratories, Japan), and the resultant EDTA-containing whole blood sample was subjected to the below-described various measurements within 1 hour from the blood collection.
500 μl of the blood was put in a 2-ml Eppendorf tube, and 500 μl of an aqueous surfactant solution having a surfactant concentration of 0.1, 0.2, 0.4, 0.6, 1, 2, 4, 10 or 20% (w/v) was added to the tube, and the resultant mixture was stirred for 2 seconds by a Vortex mixer. Subsequently, the mixture was allowed to stand for 60 minutes on ice to thereby lyze the white blood cells. […] After the lysis of the white blood cells, 100 μl of the mixture was taken out and added to 900 μl of a PBS solution containing dissolved therein 1% BSA (trade name: “Sigma fraction V”, manufactured and sold under the brand of SIGMA™, U.S.A.). The resultant mixture was stirred by a Vortex mixer, and then 10 μl of the mixture was taken out and diluted 2,000-fold with 1% BSA/PBS solution. The resultant diluted mixture was subjected to a measurement by ELISA.
The outline of the ELISA is as follows. A 5 μg/ml PBS solution of a rabbit anti-human myeloperoxidase antibody (manufactured and sold by Calbiochem-Novabiochem Corporation, U.S.A.)(hereinafter, frequently referred to as “anti-MPO antibody”) was put into the wells of a Nunc Immuno Plate (manufactured and sold by Nalge Nunc International, Denmark) in an amount of 100 μl per well. The solution in each well was sealed and subjected to a reaction for 18 hours at 4° C. thereby immobilizing the primary antibody. The wells were washed with a washing solution (0.05% Tween™ 20/PBS) and then subjected to blocking for 1 hour at room temperature by using 200 μl of a blocking solution (1% BSA/PBS), and then washed twice with the washing solution. Then, the above-obtained diluted mixture (blood sample which had been treated with a surfactant and then diluted) was put in the wells in an amount of 100 μl per well, and subjected to a reaction for 2 hours at room temperature. Then, the wells were washed 3 times with the washing solution, and a 5 μg/ml solution of an anti-MPO antibody labeled with horseradish peroxidase (hereinafter referred to as “HRP”) was put in the wells in an amount of 100 μl per well, and subjected to a reaction for 1 hour at room temperature. As the above-mentioned HRP-labeled anti-MPO antibody, an anti-human MPO antibody (manufactured and sold by Calbiochem-Novabiochem Corporation, U.S.A.) which had been labeled with HRP Grade IV (manufactured and sold under the brand of SIGMA™, U.S.A.) was employed. The labeling was performed by the method described in Analytical Biochemistry, 132, 68-73 (1983). The wells were washed 5 times with the washing solution, and 100 1 μl of a just-prepared TMB solution (manufactured and sold by Kirkegaad & Perry Laboratories, U.S.A.) was added thereto to effect a color reaction. 2 Minutes after the start of the color reaction, 100 μl of a 1 N sulfuric acid solution (manufactured and sold by Nacalai Tesque, Inc., Japan) was added to the wells to thereby terminate the reaction. Then, the absorbance at 450 nm was measured by means of a plate reader (manufactured and sold by Bio-Rad Laboratories, U.S.A.). The measurement was conducted 3 times, and a mean value±standard deviation was obtained.

[4] = Example 3 (Table 3): 500 μl blood + 500 μl 1% (w/v) surfactant solution, mean ± SD of 3
[5] = concentration of surfactant 0.05 % (w/v)
[6] = concentration of surfactant 0.10 % (w/v)
[7] = concentration of surfactant 0.20 % (w/v)
[8] = concentration of surfactant 0.30 % (w/v)
[9] = concentration of surfactant 0.50 % (w/v)
[10] = concentration of surfactant 1.00 % (w/v)
[11] = concentration of surfactant 2.00 % (w/v)
[12] = concentration of surfactant 5.00 % (w/v)
[13] = concentration of surfactant 10.00 % (w/v)
[14] = Example 5 (Table 5): 500 μl blood + 500 μl 1% (w/v) surfactant solution, mean ± SD
[15] = Example 4 (Table 4): 500 μl blood + 500 μl 1% (w/v) surfactant solution, mean ± SD

α-[4-(1,1,3,3,-Tetramethylbutyl)phenyl]-ω-hydroxypoly(oxy-1,2-ethanediyl) [Triton ™ X-114]
MPO concentration of whole blood [1, 4]: 7.44 ± 1.81 µg/mL
Efficiency for releasing intrinsic MPO from the white blood cells (in words) [2]: high activity to release intrinsic MPO
Release amount of MPO in whole blood [3, 5]: 0.120 ± 0.026 Abs. 450 nm
Release amount of MPO in whole blood [3, 6]: 0.131 ± 0.016 Abs. 450 nm
Release amount of MPO in whole blood [3, 7]: 0.207 ± 0.004 Abs. 450 nm
Release amount of MPO in whole blood [3, 8]: 0.198 ± 0.003 Abs. 450 nm
Release amount of MPO in whole blood [3, 9]: 0.259 ± 0.007 Abs. 450 nm
Release amount of MPO in whole blood [3, 10]: 0.240 ± 0.006 Abs. 450 nm
Release amount of MPO in whole blood [3, 11]: 0.245 ± 0.015 Abs. 450 nm
Release amount of MPO in whole blood [3, 12]: 0.239 ± 0.002 Abs. 450 nm
Release amount of MPO in whole blood [3, 13]: 0.243 ± 0.005 Abs. 450 nm

CCCCCCCCCCCCCCCCCC[N+](C)(C)C.[Cl-] [OTAC, Octadecyltrimethylammonium Chloride]
MPO concentration of whole blood [1, 14]: 7.47 ± 0.38 µg/mL

CCCCCCCCCCCC[n+]1ccccc1.[Cl-] [LPC, 1-Laurylpyridinium Chloride]
MPO concentration of whole blood [1, 15]: 9.58 ± 1.39 µg/mL
MPO concentration of whole blood [1, 14]: 7.57 ± 0.60 µg/mL

CCCCCCCCCCCCCC[N+](C)(C)C.[Br-] [TTAB, Tetradecyltrimethylammonium Bromide]
MPO concentration of whole blood [1, 15]: 9.33 ± 1.30 µg/mL
MPO concentration of whole blood [1, 14]: 8.08 ± 0.11 µg/mL

CCCCCCCCCCCCCCCC[N+](C)(C)C.[Br-] [HTAB, Hexadecyltrimethylammonium Bromide]
MPO concentration of whole blood [1, 4]: 5.80 ± 1.41 µg/mL
MPO concentration of whole blood [1, 15]: 9.58 ± 0.53 µg/mL
MPO concentration of whole blood [1, 14]: 7.15 ± 2.69 µg/mL

CCCCCCCCCCCC[N+](C)(C)C.[Br-] [DTAB, n-Dodecyltrimethylammonium Bromide]
MPO concentration of whole blood [1, 14]: 8.05 ± 0.64 µg/mL

α-(4-Nonylphenyl)-ω-hydroxypoly(oxy-1,2-ethanediyl) [Nissan Nonion NS-208.5]
MPO concentration of whole blood [1, 4]: 6.20 ± 1.51 µg/mL

CCCCCCCCCCCCCCCC[N+](C)(C)C.[Cl-] [HTAC, Hexadecyltrimethylammonium Chloride]
MPO concentration of whole blood [1, 15]: 10.93 ± 0.82 µg/mL
MPO concentration of whole blood [1, 14]: 7.35 ± 0.28 µg/mL

α-[4-(1,1,3,3,-Tetramethylbutyl)phenyl]-ω-hydroxypoly(oxy-1,2-ethanediyl) [Igepal ™ CA630]
MPO concentration of whole blood [1, 4]: 6.23 ± 1.42 µg/mL
Release amount of MPO in whole blood [3, 5]: 0.103 ± 0.005 Abs. 450 nm
Release amount of MPO in whole blood [3, 6]: 0.156 ± 0.009 Abs. 450 nm
Release amount of MPO in whole blood [3, 7]: 0.205 ± 0.007 Abs. 450 nm
Release amount of MPO in whole blood [3, 8]: 0.211 ± 0.008 Abs. 450 nm
Release amount of MPO in whole blood [3, 9]: 0.249 ± 0.002 Abs. 450 nm
Release amount of MPO in whole blood [3, 10]: 0.220 ± 0.008 Abs. 450 nm
Release amount of MPO in whole blood [3, 11]: 0.208 ± 0.003 Abs. 450 nm
Release amount of MPO in whole blood [3, 12]: 0.199 ± 0.018 Abs. 450 nm
Release amount of MPO in whole blood [3, 13]: 0.227 ± 0.006 Abs. 450 nm

Source: patent US6599713B1, “Method for quantitating leukocyte count in whole blood sample” (priority 1999, dated 2003)
